ChEMBL document CHEMBL4024717, “Anthranilamide-based 2-phenylcyclopropane-1-carboxamides, 1,1'-biphenyl-4-carboxamides and 1,1'-biphenyl-2-carboxamides: Synthesis biological evaluation and mechanism of action” (Eur J Med Chem, 2017)
Active and inactive are the calls of the source. The calls are words filed in the database; no cut-off is given here.

Key:
K562 [1] = experiment: Growth inhibition of human K562 cells at 10 uM after 24 hrs by MTT assay relative to control; assay type: functional; conditions: K562, 24 h, read-out: GI
K562 [2] = experiment: Cytotoxicity against human K562 cells after 48 hrs by MTT assay; assay type: functional, cell-based; conditions: K562, 48 h
K562 [3] = experiment: Induction of morphological changes in human K562 cells assessed as reduction in cell volume at 0.75 to 2.5 uM after 24 hrs by light microscopic method; assay type: functional, cell-based
[4] = target: Serine-protein kinase ATM (Homo sapiens) (UniProt Q13315); experiment: Activation of ATM phosphorylation in human K562 cells assessed as ratio of phosphorylated H2AX at S139 to beta-tubulin level at 750 nM after 24 hrs by Western blot analysis (reference value: 1); assay type: cell-based
Serine-protein kinase ATM (Homo sapiens), sequence (Q13315 whole entry): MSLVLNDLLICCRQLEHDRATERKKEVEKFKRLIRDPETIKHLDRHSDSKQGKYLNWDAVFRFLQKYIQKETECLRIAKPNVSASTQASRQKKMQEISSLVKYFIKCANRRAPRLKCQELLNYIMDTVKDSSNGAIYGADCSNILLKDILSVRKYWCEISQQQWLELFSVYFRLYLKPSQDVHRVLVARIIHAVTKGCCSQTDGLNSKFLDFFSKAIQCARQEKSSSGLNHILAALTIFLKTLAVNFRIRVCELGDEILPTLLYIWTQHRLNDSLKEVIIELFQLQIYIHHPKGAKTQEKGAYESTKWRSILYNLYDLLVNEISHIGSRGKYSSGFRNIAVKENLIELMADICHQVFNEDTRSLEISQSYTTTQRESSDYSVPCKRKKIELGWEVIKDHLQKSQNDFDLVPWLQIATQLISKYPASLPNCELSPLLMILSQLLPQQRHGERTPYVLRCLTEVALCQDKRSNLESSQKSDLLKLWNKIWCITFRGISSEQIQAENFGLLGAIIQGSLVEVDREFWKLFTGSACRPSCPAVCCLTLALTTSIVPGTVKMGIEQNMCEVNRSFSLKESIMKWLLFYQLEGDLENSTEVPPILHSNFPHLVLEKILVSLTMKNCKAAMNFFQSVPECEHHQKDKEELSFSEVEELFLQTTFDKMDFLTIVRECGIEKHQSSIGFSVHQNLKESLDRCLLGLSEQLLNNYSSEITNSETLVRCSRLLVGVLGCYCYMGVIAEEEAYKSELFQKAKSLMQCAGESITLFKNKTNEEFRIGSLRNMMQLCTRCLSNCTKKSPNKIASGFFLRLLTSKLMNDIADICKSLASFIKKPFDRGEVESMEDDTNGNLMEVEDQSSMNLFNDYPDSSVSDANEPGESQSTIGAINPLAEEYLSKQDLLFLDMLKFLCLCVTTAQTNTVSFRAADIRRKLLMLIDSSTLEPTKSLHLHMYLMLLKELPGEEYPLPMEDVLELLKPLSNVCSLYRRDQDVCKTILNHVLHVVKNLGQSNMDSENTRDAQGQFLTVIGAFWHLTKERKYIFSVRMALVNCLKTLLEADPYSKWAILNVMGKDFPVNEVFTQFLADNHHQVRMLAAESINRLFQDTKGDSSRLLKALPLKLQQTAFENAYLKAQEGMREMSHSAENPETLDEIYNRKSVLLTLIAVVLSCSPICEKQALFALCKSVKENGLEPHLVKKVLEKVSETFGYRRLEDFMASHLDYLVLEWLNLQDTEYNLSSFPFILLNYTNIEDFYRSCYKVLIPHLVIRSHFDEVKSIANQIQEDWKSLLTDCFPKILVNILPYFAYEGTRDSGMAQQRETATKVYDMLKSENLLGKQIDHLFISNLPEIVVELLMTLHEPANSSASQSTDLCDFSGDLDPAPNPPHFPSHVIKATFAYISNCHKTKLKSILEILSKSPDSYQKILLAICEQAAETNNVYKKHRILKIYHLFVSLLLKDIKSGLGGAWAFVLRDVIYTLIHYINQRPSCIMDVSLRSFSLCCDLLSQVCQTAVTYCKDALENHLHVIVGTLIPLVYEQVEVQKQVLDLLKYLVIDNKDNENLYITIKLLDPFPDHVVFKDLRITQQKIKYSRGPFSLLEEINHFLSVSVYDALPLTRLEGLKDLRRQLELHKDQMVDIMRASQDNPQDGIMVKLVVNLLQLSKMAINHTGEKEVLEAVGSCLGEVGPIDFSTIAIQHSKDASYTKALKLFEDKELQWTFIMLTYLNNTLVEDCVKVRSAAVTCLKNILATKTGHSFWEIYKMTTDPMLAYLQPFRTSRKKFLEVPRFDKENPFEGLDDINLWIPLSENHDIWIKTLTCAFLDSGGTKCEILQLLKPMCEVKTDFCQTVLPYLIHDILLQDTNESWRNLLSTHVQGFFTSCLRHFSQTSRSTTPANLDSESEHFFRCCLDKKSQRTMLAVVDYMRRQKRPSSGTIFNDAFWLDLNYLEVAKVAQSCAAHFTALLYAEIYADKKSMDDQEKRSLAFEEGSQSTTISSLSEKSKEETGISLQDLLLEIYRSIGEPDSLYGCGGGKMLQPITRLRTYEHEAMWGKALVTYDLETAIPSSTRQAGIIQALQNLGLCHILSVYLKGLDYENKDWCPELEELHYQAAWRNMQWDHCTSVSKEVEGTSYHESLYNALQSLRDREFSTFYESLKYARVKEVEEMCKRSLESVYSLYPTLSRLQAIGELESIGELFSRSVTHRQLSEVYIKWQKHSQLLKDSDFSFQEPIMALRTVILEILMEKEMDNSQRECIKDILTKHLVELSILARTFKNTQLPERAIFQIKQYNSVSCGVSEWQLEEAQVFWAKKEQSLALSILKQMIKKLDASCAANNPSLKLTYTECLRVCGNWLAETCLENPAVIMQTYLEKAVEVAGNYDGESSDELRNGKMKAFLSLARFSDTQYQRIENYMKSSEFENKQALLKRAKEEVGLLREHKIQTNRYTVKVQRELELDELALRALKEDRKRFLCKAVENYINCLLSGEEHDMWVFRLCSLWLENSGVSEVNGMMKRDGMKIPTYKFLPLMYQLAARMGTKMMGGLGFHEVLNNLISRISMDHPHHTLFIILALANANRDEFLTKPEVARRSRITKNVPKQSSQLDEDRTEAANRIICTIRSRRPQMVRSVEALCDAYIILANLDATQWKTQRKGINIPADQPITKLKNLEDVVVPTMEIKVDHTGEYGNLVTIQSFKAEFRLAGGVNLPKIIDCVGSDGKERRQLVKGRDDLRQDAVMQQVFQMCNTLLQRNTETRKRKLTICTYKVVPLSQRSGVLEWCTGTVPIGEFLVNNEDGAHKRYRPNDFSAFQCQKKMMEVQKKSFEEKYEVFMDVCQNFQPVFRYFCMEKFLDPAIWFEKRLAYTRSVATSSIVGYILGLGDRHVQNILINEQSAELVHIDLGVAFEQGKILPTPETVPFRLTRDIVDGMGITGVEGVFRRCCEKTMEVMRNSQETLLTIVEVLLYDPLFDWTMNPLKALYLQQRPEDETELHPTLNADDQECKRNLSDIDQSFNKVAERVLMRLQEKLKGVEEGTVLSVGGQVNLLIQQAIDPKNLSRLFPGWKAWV

K562 [5] = experiment: Induction of apoptosis in human K562 cells assessed as chromatin condensation at 0.75 to 2.5 uM after 24 to 48 hrs by Hoechst 33342/DAPI staining based fluorescence microscopic analysis; assay type: functional, cell-based
16HBE14o- = experiment: Cytotoxicity against human 16HBE cells after 24 hrs by MTT assay; assay type: cell-based
K562 [6] = experiment: Induction of apoptosis in human K562 cells assessed as ratio of procaspase-3 to beta actin level at 750 nM after 24 hrs by Western blot analysis (reference value: 1); assay type: functional
K562 [7] = experiment: Induction of reactive oxygen species generation in human K562 cells at 0.75 to 2.5 uM after 48 hrs by H2DCFDA staining based fluorescence microscopic analysis; assay type: functional, cell-based
[8] = target: Serine-protein kinase ATM (Homo sapiens) (UniProt Q13315); experiment: Activation of ATM phosphorylation in human K562 cells assessed as ratio of phosphorylated H2AX at S139 to beta-tubulin level at 2.5 uM after 24 hrs by Western blot analysis (reference value: 1); assay type: cell-based
K562 [9] = experiment: Induction of reactive oxygen species generation in human K562 cells at 0.75 to 2.5 uM after 5 to 24 hrs by H2DCFDA staining based fluorescence microscopic analysis; assay type: functional, cell-based
K562 [10] = experiment: Cytotoxicity against human K562 cells after 24 hrs by MTT assay; assay type: functional, cell-based; conditions: K562, 24 h
[11] = target: Serine-protein kinase ATM (Homo sapiens) (UniProt Q13315); experiment: Activation of ATM phosphorylation in human K562 cells assessed as ratio of phosphorylated ATM to beta-tubulin level at 750 nM after 48 hrs by Western blot analysis (reference value: 0.2); assay type: cell-based
K562 [12] = experiment: Cell cycle arrest in human K562 cells assessed as accumulation at G2/M phase at 2.5 uM after 24 hrs by propidium iodide staining based flow cytometry (reference value: 13.3%); assay type: functional
[13] = target: T1, c-Jun N-terminal kinase, JNK (Homo sapiens) (UniProt P45983+P53779+P45984); experiment: Induction of JNK phosphorylation in human K562 cells assessed as ratio of phosphorylated JNK to beta-tubulin at 750 nM after 48 hrs by Western blot analysis (reference value: 1); assay type: cell-based
K562 [14] = experiment: Cell cycle arrest in human K562 cells assessed as accumulation at sub G0/G1 phase at 2.5 uM after 48 hrs by propidium iodide staining based flow cytometry (reference value: 1.1%); assay type: functional
K562 [15] = experiment: Induction of apoptosis in human K562 cells assessed as cell shrinkage at 0.75 to 2.5 uM after 24 to 48 hrs by Hoechst 33342/DAPI staining based fluorescence microscopic analysis; assay type: functional
[16] = target: Serine-protein kinase ATM (Homo sapiens) (UniProt Q13315); experiment: Activation of ATM phosphorylation in human K562 cells assessed as ratio of phosphorylated ATM to beta-tubulin level at 750 nM after 24 hrs by Western blot analysis (reference value: 0.2); assay type: cell-based
K562 [17] = experiment: Cell cycle arrest in human K562 cells assessed as accumulation at G0/G1 phase at 2.5 uM after 48 hrs by propidium iodide staining based flow cytometry (reference value: 67.4%); assay type: functional
K562 [18] = experiment: Induction of morphological changes in human K562 cells assessed as cellular fragmentation at 0.75 to 2.5 uM after 48 hrs by light microscopic method; assay type: functional, cell-based
HT-29 = experiment: Cytotoxicity against human HT-29 cells after 24 hrs by MTT assay; assay type: functional, cell-based; conditions: HT-29, 24 h
K562 [19] = experiment: Cell cycle arrest in human K562 cells assessed as accumulation at G2/M phase at 2.5 uM after 48 hrs by propidium iodide staining based flow cytometry (reference value: 17.7%); assay type: functional
K562 [20] = experiment: Induction of apoptosis in human K562 cells assessed as ratio of procaspase-3 to beta actin level at 2.5 uM after 24 hrs by Western blot analysis (reference value: 1); assay type: functional
[21] = target: Serine-protein kinase ATM (Homo sapiens) (UniProt Q13315); experiment: Activation of ATM phosphorylation in human K562 cells assessed as ratio of phosphorylated H2AX at S139 to beta-tubulin level at 750 nM after 48 hrs by Western blot analysis (reference value: 0.8); assay type: cell-based
K562 [22] = experiment: Induction of apoptosis in human K562 cells assessed as ratio of procaspase-3 to beta actin level at 2.5 uM after 48 hrs by Western blot analysis (reference value: 0.9); assay type: functional
K562 [23] = experiment: Induction of apoptosis in human K562 cells assessed as DNA fragmentation at 0.75 to 2.5 uM after 24 to 48 hrs by Hoechst 33342/DAPI staining based fluorescence microscopic analysis; assay type: functional, cell-based
K562 [24] = experiment: Cell cycle arrest in human K562 cells assessed as accumulation at G2/M phase at 750 nM after 24 hrs by propidium iodide staining based flow cytometry (reference value: 13.3%); assay type: functional
[25] = target: Serine-protein kinase ATM (Homo sapiens) (UniProt Q13315); experiment: Activation of ATM phosphorylation in human K562 cells assessed as ratio of phosphorylated H2AX at S139 to beta-tubulin level at 2.5 uM after 48 hrs by Western blot analysis (reference value: 0.8); assay type: cell-based
[26] = target: Serine-protein kinase ATM (Homo sapiens) (UniProt Q13315); experiment: Activation of ATM phosphorylation in human K562 cells assessed as ratio of phosphorylated ATM to beta-tubulin level at 2.5 uM after 24 hrs by Western blot analysis (reference value: 0.2); assay type: cell-based
K562 [27] = experiment: Induction of morphological changes in human K562 cells assessed as reduction in cell number at 0.75 to 2.5 uM after 24 hrs by light microscopic method; assay type: functional, cell-based
K562 [28] = experiment: Cell cycle arrest in human K562 cells assessed as accumulation at sub G0/G1 phase at 750 nM after 48 hrs by propidium iodide staining based flow cytometry (reference value: 1.1%); assay type: functional
[29] = target: T1, c-Jun N-terminal kinase, JNK (Homo sapiens); experiment: Induction of JNK phosphorylation in human K562 cells assessed as ratio of phosphorylated JNK to beta-tubulin at 2.5 uM after 24 hrs by Western blot analysis (reference value: 1); assay type: cell-based
K562 [30] = experiment: Induction of morphological changes in human K562 cells assessed as appearance of shrunken cytoplasm at 0.75 to 2.5 uM after 24 hrs by light microscopic method; assay type: functional, cell-based
[31] = Selectivity index, ratio of IC50 for human 16HBE cells to IC50 for human K562 cells; assay type: functional
MDA-MB-231 = experiment: Cytotoxicity against human MDA-MB-231 cells after 24 hrs by MTT assay; assay type: functional, cell-based; conditions: MDA-MB-231, 24 h
[32] = Selectivity index, ratio of IC50 for human 16HBE cells to IC50 for human HT-29 cells; assay type: functional
K562 [33] = experiment: Cell cycle arrest in human K562 cells assessed as accumulation at sub G0/G1 phase at 750 nM after 24 hrs by propidium iodide staining based flow cytometry (reference value: 3.1%); assay type: functional
K562 [34] = experiment: Cell cycle arrest in human K562 cells assessed as accumulation at G0/G1 phase at 750 nM after 24 hrs by propidium iodide staining based flow cytometry (reference value: 68.8%); assay type: functional
[35] = target: Serine-protein kinase ATM (Homo sapiens) (UniProt Q13315); experiment: Activation of ATM phosphorylation in human K562 cells assessed as ratio of phosphorylated ATM to beta-tubulin level at 2.5 uM after 48 hrs by Western blot analysis (reference value: 0.2); assay type: cell-based
[36] = target: T1, c-Jun N-terminal kinase, JNK (Homo sapiens); experiment: Induction of JNK phosphorylation in human K562 cells assessed as ratio of phosphorylated JNK to beta-tubulin at 2.5 uM after 48 hrs by Western blot analysis (reference value: 1); assay type: cell-based
K562 [37] = experiment: Cell cycle arrest in human K562 cells assessed as accumulation at G0/G1 phase at 2.5 uM after 24 hrs by propidium iodide staining based flow cytometry (reference value: 68.8%); assay type: functional
K562 [38] = experiment: Induction of apoptosis in human K562 cells assessed as ratio of procaspase-3 to beta actin level at 750 nM after 48 hrs by Western blot analysis (reference value: 0.9); assay type: functional
[39] = target: T1, c-Jun N-terminal kinase, JNK (Homo sapiens); experiment: Induction of JNK phosphorylation in human K562 cells assessed as ratio of phosphorylated JNK to beta-tubulin at 750 nM after 24 hrs by Western blot analysis (reference value: 1); assay type: cell-based
K562 [40] = experiment: Cell cycle arrest in human K562 cells assessed as accumulation at sub G0/G1 phase at 2.5 uM after 24 hrs by propidium iodide staining based flow cytometry (reference value: 3.1%); assay type: functional
K562 [41] = experiment: Cell cycle arrest in human K562 cells assessed as accumulation at G0/G1 phase at 750 nM after 48 hrs by propidium iodide staining based flow cytometry (reference value: 67.4%); assay type: functional
K562 [42] = experiment: Cell cycle arrest in human K562 cells assessed as accumulation at G2/M phase at 750 nM after 48 hrs by propidium iodide staining based flow cytometry (reference value: 17.7%); assay type: functional
[43] = Selectivity index, ratio of IC50 for human 16HBE cells to IC50 for human MDA-MB-231 cells; assay type: functional

COc1cc(NC(=O)c2ccccc2-c2ccccc2)c(C(N)=O)cc1OC
inhibition of growth at 10 µM (K562 [1]): 46%

NC(=O)c1cc(I)ccc1NC(=O)c1ccc(-c2ccccc2)cc1
IC50 (K562 [2]): 15 µM
inhibition of growth at 10 µM (K562 [1]): 15%

NC(=O)c1cc(I)ccc1NC(=O)c1ccccc1-c1ccccc1
Activity (K562 [3]): Active
Ratio [4]: 1.5
Activity (K562 [5]): Active
IC50 (K562 [2]): 0.5 µM
IC50 (16HBE14o-): 30 µM
Ratio (K562 [6]): 0.8
Activity (K562 [7]): Active
Ratio [8]: 2.1
Activity (K562 [9]): inactive
IC50 (K562 [10]): 0.5 µM
Ratio [11]: 0.5
Activity (K562 [12]): 74.6%
Ratio [13]: 1.2
Activity (K562 [14]): 26.2%
Activity (K562 [15]): Active
Ratio [16]: 1
Activity (K562 [17]): 50.5%
Activity (K562 [18]): Active
IC50 (HT-29): 10 µM
Activity (K562 [19]): 13.4%
Ratio (K562 [20]): 0.8
Ratio [21]: 2.2
Ratio (K562 [22]): 0.5
Activity (K562 [23]): Active
Activity (K562 [24]): 37.1%
Ratio [25]: 1.6
Ratio [26]: 2.5
Activity (K562 [27]): Active
Activity (K562 [28]): 4%
Ratio [29]: 1.2
Activity (K562 [30]): Active
Ratio IC50 [31]: 60
IC50 (MDA-MB-231): 10 µM
Ratio IC50 [32]: 3
Activity (K562 [33]): 2.7%
inhibition of growth at 10 µM (K562 [1]): 85%
Activity (K562 [34]): 54.9%
Ratio [35]: 0.9
Ratio [36]: 1.4
Activity (K562 [37]): 14.9%
Ratio (K562 [38]): 0.5
Ratio [39]: 0.8
Activity (K562 [40]): 2.2%
Activity (K562 [41]): 48.6%
Activity (K562 [42]): 30.5%
Ratio IC50 [43]: 3

Cc1ccc(NC(=O)[C@@H]2C[C@H]2c2ccccc2)c(C(N)=O)c1
inhibition of growth at 10 µM (K562 [1]): 15%

NC(=O)c1cc(Cl)ccc1NC(=O)[C@@H]1C[C@H]1c1ccccc1
inhibition of growth at 10 µM (K562 [1]): 24%

NC(=O)c1ccccc1NC(=O)c1ccc(-c2ccccc2)cc1
inhibition of growth at 10 µM (K562 [1]): 21.6%

Cc1ccc(NC(=O)c2ccc(-c3ccccc3)cc2)c(C(N)=O)c1
inhibition of growth at 10 µM (K562 [1]): 39.7%

NC(=O)c1cc(I)ccc1NC(=O)[C@@H]1C[C@H]1c1ccccc1
IC50 (K562 [2]): 10 µM
inhibition of growth at 10 µM (K562 [1]): 25%

Cc1ccc(NC(=O)c2ccccc2-c2ccccc2)c(C(N)=O)c1
inhibition of growth at 10 µM (K562 [1]): 48.9%

COc1cc(NC(=O)[C@@H]2C[C@H]2c2ccccc2)c(C(N)=O)cc1OC
inhibition of growth at 10 µM (K562 [1]): 26.7%

NC(=O)c1cc(Cl)ccc1NC(=O)c1ccccc1-c1ccccc1
inhibition of growth at 10 µM (K562 [1]): 47.3%

NC(=O)c1ccccc1NC(=O)c1ccccc1-c1ccccc1
inhibition of growth at 10 µM (K562 [1]): 44.6%

COc1ccc(NC(=O)c2ccccc2-c2ccccc2)c(C(N)=O)c1
inhibition of growth at 10 µM (K562 [1]): 37%

COc1ccc(NC(=O)[C@@H]2C[C@H]2c2ccccc2)c(C(N)=O)c1
inhibition of growth at 10 µM (K562 [1]): 26.7%

NC(=O)c1cc(Cl)ccc1NC(=O)c1ccc(-c2ccccc2)cc1
inhibition of growth at 10 µM (K562 [1]): 45%

COc1cc(NC(=O)c2ccc(-c3ccccc3)cc2)c(C(N)=O)cc1OC
inhibition of growth at 10 µM (K562 [1]): 48%

NC(=O)c1ccccc1NC(=O)[C@@H]1C[C@H]1c1ccccc1
inhibition of growth at 10 µM (K562 [1]): < 10%

COc1ccc(NC(=O)c2ccc(-c3ccccc3)cc2)c(C(N)=O)c1
inhibition of growth at 10 µM (K562 [1]): 29.2%

COc1cc2c(c(OC)c1OC)-c1ccc(OC)c(=O)cc1[C@@H](NC(C)=O)CC2 [COLCHICINE]
inhibition of growth at 10 µM (K562 [1]): 63.6%
